Data set [1] is described as follows: Gemcitabine and metabolites in tumor and plasma, with or without BLR200 (HPLC-MS). Particulars: for Change of concentration (tumor/plasma ratio) in BLR200-treated mice: BLR200 10 µg/kg i.p. every other day from day 11, 4 treatments, gemcitabine 100 mg/kg i.v. single bolus day 17, 30 min and 1 h, n = 4, not statistically significant.
Method: FC1199-bearing mice were treated i.p with BLR200 (10 µg/kg) from day 11 for a total of 4 treatments, every other day. On day 17, mice were treated with gemcitabine (100 mg/kg, i.v., single bolus). After 30 min and 1 h, plasma and tumors were collected for HPLC measurement of gemcitabine and metabolites. The plasma fraction added with 10 µL tetrahydrouridine (THU) 2.5 mg/mL was immediately separated by centrifugation at 3200× g for 15 min at 4 °C and stored at −20 °C until analysis. Tumors were immediately frozen in liquid nitrogen and stored at −20 °C until analysis. Extraction and analysis of gemcitabine (dFdc, dFdCTP, and dFdU) in tumors and plasma were carried out according to Bapiro et al. [27].
Briefly, tumors were weighted, spiked with 2′-deossicitidine as the internal standard (IS) at a final concentration of 1 ng/mg, and homogenized with ice-cold acetonitrile (ACN) 50% (v/v) containing THU 25 µg/mL in a Precellys Evolution homogenizer (Bertin Technologies S.A.S., Montigny-le-Bretonneux, France). Fifty microliters of homogenate were added with 200 µL ACN 50% (v/v), vortexed, and centrifuged at 13,200 rpm for 10 min at 4 °C. The supernatant was dried under N2 flux and the residue reconstituted with 100 µL of milliQ water. Concerning plasma, 25 µL were spiked with 1 µL of 10 µg/mL of IS and processed in the same way as tumors. The reconstituted tumors and plasma extracts were analyzed by injecting 2 µL in a UHPLC System connected to a LCMS-8060 (Shimadzu Scientific Instruments, Columbia, MD, USA) with a dual ion source. […] The mass spectrometer worked with an electrospray ionization source operating both in the negative and positive Multiple Reaction Monitoring mode, quantifying target ions m/z 264→59.25 for gemcitabine (positive), m/z 502→158.9 for dFdCTP (negative), m/z 263.1→220 for dFdU (negative), and m/z 228.1→112.05 for IS (positive). The lower limit of quantitation (LOQ) was 0.2 ng/mg for gemcitabine, 0.4 ng/mg for dFdU, and 0.5 ng/mg for dFdCTP in tumor samples, while it was 0.01 µg/mL for gemcitabine and 0.02 µg/mL for dFdU in plasma samples.
A further data set relates to FC1199 cells. The data set can be described thus: FC1199 proliferation assay (crystal violet). The class given is cell-based, murine. To be noted: Mus musculus, 72 h, 72 h incubation, mean and SD of two experiments, read-out: IC50 of gemcitabine on FC1199 cell proliferation. The method, then:
FC1199 were seeded into 96-well plates in DMEM supplemented with 5% FCS. At 24 h after seeding, cells were exposed to increasing concentrations of BLR100 and BLR200 alone or in combination with increasing concentrations of gemcitabine. After a 72 h incubation, cells were fixed and stained with crystal violet solution (Sigma–Aldrich, Merck Life Science, Milano, Italy). The staining was eluted with a 1:1 ethanol/0.1 M sodium citrate solution, and the absorbance at 595 nm was measured. Each condition was tested in triplicate.

The test system of a further data set is FC1199 orthotopic tumors. The data set can be described thus: Orthotopic FC1199 PDAC model: tumor burden (pancreas weight) and ascites. Format: in vivo, C57BL/6 mice. Particulars: peptides 4.5 µg/kg i.p. from day 11 or gemcitabine 40 mg/kg i.v.; n = 7. Here is the method: Six- to eight-week old female C57BL/6 mice (Charles River Laboratories, Lecco, Italy) were maintained under specific-pathogen-free conditions, with constant temperature and humidity, and handled using aseptic procedures. FC1199 cells (5 × 10^4) were implanted orthotopically in the pancreas as described. Gemcitabine was administered i.v. at 40 mg/kg (see scheme in Figure 4A). Control groups received the same volume of vehicle. Mice were weighed every other day as a measure of drug toxicity. […] Tumor burden was evaluated at the end of the experiment, as pancreas weight. Peritoneal ascitic fluid was collected with a syringe and the volume recorded. Animals with a collectable peritoneal fluid (≥100 µL) were considered positive for ascites. Liver of mice were analyzed for macroscopic metastases, and no metastatic foci was detected in any group.

In another data set the test system is KPC tumor. To be noted: LSL-KrasG12D/+;LSL-Trp53R172H/+;Pdx-1-Cre (KPC) mice; cited from earlier work. The source says: (§1) CCN2 has recently been proposed as a target for PDAC therapy. […] FG-3019 (pamrevlumab) is currently in a Phase 3 clinical trial to evaluate its efficacy and safety as neoadjuvant treatment in combination with gemcitabine plus nab-paclitaxel in the treatment of locally advanced, unresectable pancreatic cancer.

The test system of another data set is PANC-1 orthotopic. Particulars: PANC-1 orthotopic preclinical model; cited from earlier work.
Source text: as §1

Like-named read-outs stand apart in the source and are kept apart here.

`Nc1ccn([C@@H]2O[C@H](COP(=O)(O)OP(=O)(O)OP(=O)(O)O)[C@@H](O)C2(F)F)c(=O)n1` [dFdCTP, gemcitabine triphosphate]: the “Concentration of the metabolite in tumors and plasma” value in data set [1] (gemcitabine 100 mg/kg i.v. single bolus, with or without BLR200 10 µg/kg, 30 min and 1 h, LOQ 0.5 ng/mg in tumor) is “undetectable in both groups”.
In the case of `O=c1ccn([C@@H]2O[C@H](CO)[C@@H](O)C2(F)F)c(=O)[nH]1` [dFdU, 2′,2′-difluorodeoxyuridine], the “Change of concentration (tumor/plasma ratio) in BLR200-treated mice” value in data set [1] is on record as “small increase”.
With `Nc1ccn([C@@H]2O[C@H](CO)[C@@H](O)C2(F)F)c(=O)n1` [gemcitabine, Gemcitabine], in data set [1], the “Change of concentration (tumor/plasma ratio) in BLR200-treated mice” value is “small increase”. Moreover, the IC50 with FC1199 cells (gemcitabine alone, DMEM 5% FCS, absorbance 595 nm) was determined as 13.5 ± 4.6 nM; in the data set on FC1199 cells (gemcitabine with BLR100 20 nM) it was 13.2 ± 3.9 nM; with FC1199 cells (gemcitabine with BLR100 100 nM), 11.9 ± 3.7 nM. In addition, the “Effect on tumor growth as monotherapy, late start” value in the data set with FC1199 orthotopic tumors was “only a marginal effect on tumor growth”.

B1: FG-3019: CCN2-targeting mAb (antibody, chains of the INN, looked up, V domains shown)
VH: EGQLVQSGGGLVHPGGSLRLSCAGSGFTFSSYGMHWVRQAPGKGLEWVSGIGTGGGTYSTDSVKGRFTISRDNAKNSLYLQMNSLRAEDMAVYYCARGDYYGSGSFFDCWGQGTLVTVSS
VL: DIQMTQSPSSLSASVGDRVTITCRASQGISSWLAWYQQKPEKAPKSLIYAASSLQSGVPSRFSGSGSGTDFTLTISSLQPEDFATYYCQQYNSYPPTFGQGTKLEIK
Take B1: the “Tumor response to gemcitabine” value with KPC tumor is “enhanced tumor response”. Also, the “Tumor growth and metastasis” value in the data set on PANC-1 orthotopic was “inhibited tumor growth and metastasis”.

Values taken from paper PMC7226963, “CCN-Based Therapeutic Peptides Modify Pancreatic Ductal Adenocarcinoma Microenvironment and Decrease Tumor Growth in Combination with Chemotherapy” (Cells, 2020).
